Measurements as given in US11685766B2, “14-3-3 targeting peptides for cancer treatment” (Creighton University, priority 2019, dated 2023).
Peptide text beside a SMILES is read from it.

What was measured:
14-3-3ε protein = target: T1, 14-3-3ε protein (Homo sapiens, UniProt P62258); experiment: Differential scanning fluorimetry (DSF) binding; conditions: 7 μM 14-3-3ε, ΔTm vs peptide concentration, Hill fit; read-out: Kd, binding affinity to 14-3-3ε protein (DSF)
T1 sequence (P62258 1-255): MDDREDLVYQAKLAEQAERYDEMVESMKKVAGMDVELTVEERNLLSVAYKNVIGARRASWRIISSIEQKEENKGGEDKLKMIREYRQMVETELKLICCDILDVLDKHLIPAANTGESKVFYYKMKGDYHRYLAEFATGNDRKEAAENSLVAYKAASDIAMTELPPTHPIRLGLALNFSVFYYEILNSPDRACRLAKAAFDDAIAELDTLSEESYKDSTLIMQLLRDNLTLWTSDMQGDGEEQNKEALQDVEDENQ
Description: Differential scanning fluorimetry (DSF) experiments were performed using BioRad CFX384 Real-Time qPCR attached with C1000 Touch Thermo Cycler in the FRET channel. 7 μM subunits of 14-3-3ε protein, ten molar excess of Sypro Orange and 20 mM Tris-HCl, pH 7.4 assay buffer were used in all the melting experiments. Stock solution of peptides were prepared by dissolving 1 mg of lyophilized peptides in 20 mM Tris, pH 7.4 buffer and 0.1 μM to 200 μM dilution series were prepared. Protein melting experiments were performed both in the absence and the presence of increasing concentration of peptides. 15 μL of each samples (in triplicate) were put into each well of a 384-well white PCR plate and sealed with optical adhesive sealer (BioRad MSB-1001) and any air-bubble in the solutions were removed by spinning the plate vertically with PCR plate spinner (Labnet MPS 1000) at 1000 RPM for 3 minutes. The temperature was increased from 25° C. to 95° C. at a rate of 0.7° C. per minute. Melting temperatures of each well were determined using the CFX Maestro software version 2.0 by plotting the first derivative of fluorescence signal against temperature. All the measurements were performed in triplicate and the deviations of melting temperatures (ΔTm) presented for each samples were calculated relatively to three control samples (7 μM 14-3-3ε in the absence of the peptide). Binding constant (Kd) for each peptide was calculated by plotting ΔTm against peptide concentration and data points were fitted with Hill's equation using GraphPad 9.0 software.

[1] = target: T2, 14-3-3ε binding to CDC25A (Homo sapiens, UniProt P62258); experiment: Co-immunoprecipitation / immunoblot of CDC25A bound to 14-3-3ε; format: cell-based; conditions: SCC12B.2 cells; for amount of CDC25A on immunoblots of immunoprecipitated 14-3-3ε: pS 30 μM, pT printed 2004, 48 hours, vs vehicle, P≤0.05
T2 construct: endogenous in cells; host or cells: SCC12B.2
T2 sequence (P62258 1-255): T1 sequence (P62258 1-255)
Description: Co-Immunoprecipitation (Co-IP) was performed using a Dynabeads Protein G Immunoprecipitation kit (Life Technologies, Carlsbad, Calif., USA). Beads were coupled to antibodies targeting 14-3-3ε (Fisher Scientific, Waltham, Mass., USA) or CDC25A (Santa Cruz Biotechnology, Dallas, Tex., USA) at a ratio of 7 μg of antibody for every 1 mg of beads according to the manufacturers protocol. SCC12B.2 cells were treated with vehicle (20 mM Tris buffer, pH 7.5) or fresh peptide (pS or pT) daily at the IC50 concentration for 48 hours in Opti-MEM I Reduced Serum Medium (Invitrogen) and collected by trypsinization. One hundred mg of cells were lysed in 1×IP buffer supplemented with 100 mM sodium chloride, 2 mM dithiothreitol, 1 mM magnesium chloride and protease/phosphatase inhibitors. Immunoprecipitation reactions were carried out using 1.5 mg of antibody-coupled beads incubated with 100 mg of cell lysate at 4° C. for 30 minutes. Negative controls were immunoprecipitation reactions using beads coupled to IgG isotype control antibody (rabbit), and whole lysate from immunoprecipitation input was loaded directly onto a gel was used as a positive control.
Protein was collected by either standard whole-cell lysis using ice-cold radioimmunoprecipitation assay (RIPA) lysis buffer supplemented with protease (Roche Life Scientific) and phosphatase inhibitors (NaF, Na3VO4) or by nuclear/cytosolic extraction using the NE-PER Nuclear and Cytoplasmic Protein Extraction Reagent Kit according to the manufacturer's protocol (Pierce, Rockford, Ill., USA). Tissue protein was extracted by using a tissue grinder to lyse cells in 100 μL of RIPA lysis buffer for every 1 mg of tissue. […] Protein concentration was assessed with the Bradford assay. […] Bands were detected using horseradish peroxidase-conjugated secondary antibodies (IgG mouse or rabbit) (Cell Signaling) and visualized using western lightning plus chemiluminescent reagent (MidSci, Valley Park, Mo., USA) and signal read on a Chemidoc XRS Molecular Imager (Bio-Rad Laboratories, Hercules, Calif., USA).

| Structure (SMILES) | Kd (14-3-3ε protein) | 14-3-3ε precipitation, pS-treated compared to pT-treated samples ([1]; 48 hours) | amount of CDC25A on immunoblots of immunoprecipitated 14-3-3ε [1] |
| --- | --- | --- | --- |
| CSCC[C@H](NC(=O)[C@H](CCCNC(=N)N)NC(=O)[C@@H]1CCCN1C(=O)[C@H](C)NC(=O)[C@H](COP(=O)(O)O)NC(=O)[C@H](CC(N)=O)NC(=O)[C@H](CCC(N)=O)NC(=O)[C@H](CCCNC(=N)N)NC(=O)[C@H](CCC(N)=O)NC(=O)[C@@H](NC(C)=O)[C@@H](C)O)C(=O)N[C@@H](CC(C)C)C(=O)N[C@@H](CO)C(=O)N[C@@H](CO)C(=O)N[C@@H](CC(N)=O)C(N)=O [pS, Ac-Thr-Gln-Arg-Gln-Asn-Ser-(PO3^2−)-Ala-Pro-Arg-Met-Leu-Ser-Ser-Asn-NH2] (HELM PEPTIDE1{[ac].T.Q.R.Q.N.[O=C([C@H](COP(=O)(O)O)N[*:1])[*:2]].A.P.R.M.L.S.S.N.[am]}$$$$V2.0) | 11.2 µM | less 14-3-3ε precipitation | decreases the amount of CDC25A |
| CC(=O)N[C@@H](CCCNC(=N)N)C(=O)N[C@H](C(=O)N[C@@H](CCCCN)C(=O)N[C@@H](CO)C(=O)N[C@@H](CCCNC(=N)N)C(=O)N[C@H](C(=O)N[C@@H](Cc1c[nH]c2ccccc12)C(=O)N[C@@H](C)C(=O)NCC(=O)N[C@@H](CCC(=O)O)C(=O)N[C@@H](CCCCN)C(=O)N[C@@H](CO)C(=O)N[C@@H](CCCCN)C(=O)N[C@@H](CCCNC(=N)N)C(N)=O)[C@@H](C)OP(=O)(O)O)[C@@H](C)O [pT, Ac-Arg-Thr-Lys-Ser-Arg-Thr(PO3^2−)-Trp-Ala-Gly-Glu-Lys-Ser-Lys-Arg-NH2] (HELM PEPTIDE1{[ac].R.T.K.S.R.[C[C@@H](OP(=O)(O)O)[C@H](N[*:1])C(=O)[*:2]].W.A.G.E.K.S.K.R.[am]}$$$$V2.0) | 3.64 µM | – | decreases the amount of CDC25A |
